Here are results for four compounds from paper PMC8231349 (Journal of Enzyme Inhibition and Medicinal Chemistry, 2021).

Where “and” joins values, the source holds several entries; their conditions need not be identical. Equal values may be shown once.

The subject of series [1] is human prostate cancer cells (DU145). The experiment in a line: MTT cell viability assay, DU145. It is filed as cell-based. Conditions: 72 h. The procedure:
(§1) Experiments were performed on human prostate cancer cells (DU145; ATCC HTB-81), human lung cancer cells (A549; ATCC CCL-185-LUC2) and human bronchial epithelium cells (BEAS-2B; ATCC CRL-9609). Cells were grown in Dulbecco's modified Eagle's medium (DMEM) supplemented with 10% of heat-inactivated foetal bovine serum (FBS), 100 U/ml penicillin and 100 μg/ml streptomycin (Sigma-Aldrich, Steinheim, Germany). Cells were incubated at 37 °C in a humidified atmosphere with 5% CO2. […] Cells were seeded into 96-well plates at a density of 7,0 × 10[3] cells/well in 100 µl of culture medium. After 24 h, cells were treated with the compounds at three different concentrations (1 µM, 10 µM and 50 µM) for 72 h. Following treatments, 0.5 mg/ml of 3-[4,5-dimethylthiazol-2-yl]-2,5-diphenyltetrazolium bromide (MTT) (Sigma Aldrich) was added to each well and incubated for 4 h at 37 °C. Finally, DMSO was used to dissolve formazan salts and absorbance was measured at 570 nm in a microplate reader (Biotek Synergy-HT). […]
(§2) Compound 3 was preliminarily assessed for its cytotoxic activity towards human prostate and lung cancer cell lines (DU145 and A549, respectively), in which the overexpression of the HO-1 has been confirmed[46]^,[47]. […] Cell survival was calculated compared to untreated controls for 72 h. At the end of treatment, cell viability was evaluated using the MTT assay. […]
(In general: Formazan colour is commonly taken as a measure of viable cells.)

The test system of series [2] is human lung cancer cells (A549). The experiment in a line: MTT cell viability assay, A549. It is filed as cell-based. Conditions: 72 h. On the procedure:
as §1, §2

Series [3] has as its target T1, HO-1 (Rattus norvegicus, UniProt P06762).
T1 construct: selected in order to use the most native (i.e. closest to in vivo) forms of HO-1; from tissue; host or cells: rat spleen microsomal fraction (male Sprague-Dawley rats)
T1 sequence (P06762 1-289): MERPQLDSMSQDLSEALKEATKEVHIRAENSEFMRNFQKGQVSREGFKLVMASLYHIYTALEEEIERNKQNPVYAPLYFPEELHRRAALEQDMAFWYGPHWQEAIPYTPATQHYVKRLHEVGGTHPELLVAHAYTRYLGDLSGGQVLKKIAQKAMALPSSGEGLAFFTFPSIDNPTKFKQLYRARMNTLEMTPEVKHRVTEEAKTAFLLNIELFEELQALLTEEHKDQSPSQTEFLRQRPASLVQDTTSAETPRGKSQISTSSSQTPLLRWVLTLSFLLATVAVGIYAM
The series is described as follows: HO-1 enzymatic activity in the microsomal fraction of rat spleen (bilirubin formation). It is filed as biochemical. To be noted: mean ± SD of triplicate assays. On the procedure:
Since the dominance of HO-1 protein in the rat spleen has been well documented, HO-1 was obtained from rat spleen as the microsomal fraction prepared by differential centrifugation. This particular microsomal preparation was selected in order to use the most native (i.e. closest to in vivo) forms of HO-1. Spleen (Sprague-Dawley rats) microsomal fractions were prepared according to the procedure outlined by Ryter et al.[33]. The experiments reported in the present paper complied with current Italian law and met the guidelines of the Institutional Animal Care and Use Committee of […] OF HEALTH (Directorate General for Animal Health and Veterinary Medicines) (Italy). […]
Liver cytosol has been used as a source of BVR. […] The 100,000 g supernatant was saved and then stored in small amounts at −80 °C after its protein concentration was measured.
The HO-1 activity was determined by measuring the bilirubin formation using the difference in absorbance at 464 to 530 nm as described by Ryter et al.[33]. […] After recovering the chloroform phase, the amount of bilirubin formed was measured with a double-beam spectrophotometer as OD464-530 nm (extinction coefficient, […] for bilirubin). […]
Inhibition activity assay for HO-1 was performed by extracting the enzyme from the rat spleen microsomal fraction. […] Results are expressed as enzyme inhibition activity (IC50) in μM (Table S2, Supplemental material).

Series [4] can be described thus: Chemical stability of 3 in buffer solutions at different pHs (HPLC). Conditions: 37 °C. It is filed as physicochemical. On the procedure: The HPLC analysis of samples at various time intervals from in vitro stability in different buffers and porcine esterase solution was performed on Shimadzu Prominence-i LC-2030C 3 D Plus equipped with RID20A. Detector chromatographic separation were carried out using Chromolith SpeedROD RP […], Merck. Spectra were analysed in 200–800 nm range with 1.2 nm resolution. The column was maintained at 30 °C and eluted under gradient conditions from 100% to 0% of eluent A over 3 min, at a flow rate of 5 ml min^−1. Eluent A: water/trifluoroacetic acid (0.1%, v/v); eluent B: acetonitrile/ trifluoroacetic acid (0.1%, v/v).
A stock solution of compound 3 in DMSO (3.0 mg/mL) was prepared. To a test tube containing 0.9 ml of the corresponding Acetate (pH = 2.0) or PBS buffer solution (pH = 7.4 and 8.0, respectively), 0.1 ml of stock solution was added, and the mixture stirred and thermostated in a sand bath at 37 °C. Aliquots (0.1 ml) were withdrawn at specific time intervals and transferred to sample vials containing acetonitrile (0.9 ml). The percentage of compound remaining was followed by HPLC analysis. The retention time (tR) of compound 1, 2, and 3 were 0.74, 0.89, and 0.95 min, respectively. All the experiments were performed in triplicate.
0.001 g of lyophilised powder of esterase from the porcine liver (Sigma-Aldrich, St. Louis, Missouri, USA) was reconstituted in 1.0 ml PBS buffer (0.01 M, pH 7.4) to make an aqueous porcine esterase solution (5 U/mL), and then pre-thermostated at 37 °C. To a test tube containing 1.85 ml of PBS buffer, 0.15 ml from the stock solution of the test compound was added. The mixture was then stirred and thermostated in a sand bath at 37 °C, and 1.0 ml of the porcine esterase solution was added to initiate the enzymatic reaction. For the negative control reaction, the volume of porcine esterase solution was replaced by phosphate buffer. Aliquots (0.3 ml) were withdrawn at 0, 30, 60, 120, 180, and 240 min, and quenched with cold acetonitrile (0.7 ml)[28]. The samples were centrifuged for 6 min at 10,000 rpm, and supernatants were analysed by HPLC to check the amounts (area under the curve, AUC) of the remaining intact compound. All the experiments were performed in triplicate. Pseudo-first-order rate constant for the hydrolysis was determined from the slope of linear plots of the natural logarithm (ln) of the AUC of the peak at time t (AUCt) against time. Half-life (t1/2) was calculated according to Equation (1): (1) t1/2 = ln 2/k were k is the pseudo-first-order rate constant.
The chemical stability of 3 was evaluated at different pH values to mimic physiological conditions, including gastrointestinal (GI) tract (pH = 2.0), human plasma (pH = 7.4), and pancreatic fluid (pH = 8.0). As a result, the pH value strongly affected the chemical stability and hydrolysis rate of the hybrid 3 (Figure 2).

On the set-up of series [5]: method as in PMID 29454190. To be noted: predicted; ref [34]; cited from earlier work.
Details of series [6]: method as in PMID 29454190. Conditions: predicted, ref [34], cited from earlier work.

With `O=c1[nH]cc(F)c(=O)[nH]1` [Compound 5-FU, 5-Fluorouracil, reference compound], the IC50 (in general, the concentration needed to halve the response being measured) in series [1] (Homo sapiens, DU-145, DU145 cells, MTT) is 31.7 ± 0.92 µM; in series [2] (Homo sapiens, A549 cells, MTT) it was 0.98 ± 0.13 µM.

For the compound `O=C(O)CCC(=O)OC(Cn1ccnc1)c1cccc(Br)c1` (centres unmarked) [Compound 2, 4‐[1‐(3‐bromophenyl)‐2‐(1H‐imidazol‐1‐yl)ethoxy]‐4‐oxobutanoic acid], the melting point (usually the temperature of the solid-liquid transition) lay within 64 to 66.5 °C. Moreover, the IC50 in series [3] stood at 105 ± 5.8 µM.

As to `O=C(CCC(=O)OC(Cn1ccnc1)c1cccc(Br)c1)OCn1cc(F)c(=O)[nH]c1=O` (centres unmarked) [Compound 3, 1‐[1‐(3‐bromophenyl)‐2‐(1H‐imidazol‐1‐yl)ethyl]4‐(5‐fluoro‐2,4‐dioxo‐1,2,3,4‐tetrahydropyrimidin‐1‐yl)methyl butanedioate], in series [4] (PBS buffer without esterase, PBS buffer (pH = 7.4), no esterase, read-out: Half-life (t1/2) of hydrolysis), the half-life at 0.15 mg/mL is 28.1 h. The “% Compound remaining” value was 100 ± 0.0% in series [4] (pH = 2.0, 0 h); 94.2 ± 0.9% and 94.2% in series [4] (pH = 2.0, 24 h); 92.2 ± 0.6% in series [4] (pH = 2.0, 48 h); 86.8 ± 6.0% in series [4] (pH = 2.0, 72 h); 77.1 ± 6.5% in series [4] (pH = 2.0, 96 h); 73.5 ± 4.7% in series [4] (pH = 2.0, 168 h). Also, the “% Compound remaining” value in series [4] (pH = 7.4, 0 h) is 100 ± 0.0%; in series [4] (pH = 7.4, 24 h) it was 77.3 ± 3.9% and 77.3%; in series [4] (pH = 7.4, 48 h), 71.2 ± 4.5%; in series [4] (pH = 7.4, 72 h) it was 52.6 ± 3.8%; in series [4] (pH = 7.4, 96 h), 34.7 ± 2.2%; in series [4] (pH = 7.4, 168 h), 18.0 ± 4.2%. Besides, the “% Compound remaining” value in series [4] (pH = 8.0, 0 h) was 100 ± 0.0%; in series [4] (pH = 8.0, 24 h) it was 50.4 ± 2.4% and 50.4%; in series [4] (pH = 8.0, 48 h), 36.1 ± 2.1%; in series [4] (pH = 8.0, 72 h), 19.7 ± 1.6%. This compound also returned an IC50 in series [3] of 82 ± 2.1 µM.

With `OC(Cn1ccnc1)c1cccc(Br)c1` (centres unmarked) [Compound 1, 1–(3-bromophenyl)-2-(1H-imidazol-1-yl)ethanol], in series [5], the “Toxicity prediction: Irritant” value is on record as “none”, the “Toxicity prediction: Mutagenic” value is “none”, the “Toxicity prediction: Reproductive Effects” value is “none” and the “Toxicity prediction: Tumorigenic” value was “none”. For the same compound, in series [1] (DU145 cells, 1, 10 and 50 μM), the “Effect on cell viability” value is “no cytotoxic effect”. For the same compound, in series [2] (A549 cells, 1, 10 and 50 μM), the “Effect on cell viability” value was “no cytotoxic effect”. Moreover, in series [6] (human intestinal absorption), the “HIA (%)” value is recorded as 96.1%. Also, the Papp (as a rule, the rate of passage across a membrane or cell layer, normalised by area and donor concentration) in series [6] (in vitro Caco-2 cell permeability) is 2.96 ×10⁻⁶ cm/s. Besides, the “PPB (%)” value in series [6] (in vitro plasma protein binding) was 65%. Also, in series [6] (in vivo blood-brain barrier penetration), the “BBB (Cbrain/Cblood)” value was 0.7 Cbrain/Cblood.
